pKd: −log10 of the molar value.
Molecular target: myoglobin (carbonmonoxy myoglobin, MbCO) (Equus caballus, UniProt P68082)
Assay: 1H NMR titration
Format: binding

Sequence of myoglobin (carbonmonoxy myoglobin, MbCO) (P68082 2-154): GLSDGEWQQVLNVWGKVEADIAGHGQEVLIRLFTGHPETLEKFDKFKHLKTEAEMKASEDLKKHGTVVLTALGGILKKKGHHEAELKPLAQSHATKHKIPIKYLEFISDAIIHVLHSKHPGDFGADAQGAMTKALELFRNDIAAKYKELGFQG

- pKd: 4.32 to 4.41
SMILES: CCCCCCCCCCCCCCCC(=O)O [PA, palmitate]

— article PMC3934850 (Biochimica et biophysica acta, 2014)
